Test results from PubChem BioAssay AID248 (DTP/NCI, 2004).
Values joined by “and” are separate entries in the source; they are usually repeats but may differ in a detail not shown here. Equal entries are not always repeated. Inconclusive results and toxic doses are left out. Cut-off read from the data, not from the text of the source: active = T/C of 150% or more; inactive = T/C below 125%.

Tested on: L1210 leukemia ip in BDF1 mice, survival T/C
Assay: NCI In Vivo Anticancer Drug Screen. Data for tumor model L1210 Leukemia (intraperitoneal) in B6D2F1 (BDF1) mice
Conditions: endpoint: mean survival time, higher = longer survival
Method in brief: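 Value reflects the ratio of survival in compound-treated mice to survival in vehicle-treated controls, with both groups carrying the same transplanted tumor.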

[1] = dose: 100.0 mg/kg/injection, schedule: Q01DX001 (ip), vehicle: saline
[2] = dose: 200.0 mg/kg/injection, schedule: Q01DX001 (ip), vehicle: saline
[3] = dose: 400.0 mg/kg/injection, schedule: Q01DX001 (ip), vehicle: saline
[4] = dose: 100.0 mg/kg/injection, schedule: Q04DX002 (ip), vehicle: Klucel (hydroxypropylcellulose) (HPC)
[5] = dose: 100.0 mg/kg/injection, schedule: Q01DX009 (ip), vehicle: Klucel (hydroxypropylcellulose) (HPC)
[6] = dose: 200.0 mg/kg/injection, schedule: Q01DX009 (ip), vehicle: Klucel (hydroxypropylcellulose) (HPC)
[7] = dose: 400.0 mg/kg/injection, schedule: Q01DX009 (ip), vehicle: Klucel (hydroxypropylcellulose) (HPC)
[8] = dose: 100.0 mg/kg/injection, schedule: Q04DX002 (ip), vehicle: saline with Tween-80
[9] = dose: 200.0 mg/kg/injection, schedule: Q04DX002 (ip), vehicle: saline with Tween-80
[10] = dose: 400.0 mg/kg/injection, schedule: Q04DX002 (ip), vehicle: saline with Tween-80
[11] = dose: 100.0 mg/kg/injection, schedule: Q04DX003 (ip), vehicle: Klucel (hydroxypropylcellulose) (HPC)
[12] = dose: 200.0 mg/kg/injection, schedule: Q04DX003 (ip), vehicle: Klucel (hydroxypropylcellulose) (HPC)
[13] = dose: 400.0 mg/kg/injection, schedule: Q04DX003 (ip), vehicle: Klucel (hydroxypropylcellulose) (HPC)
[14] = dose: 100.0 mg/kg/injection, schedule: Q01DX009 (ip), vehicle: saline
[15] = dose: 200.0 mg/kg/injection, schedule: Q01DX009 (ip), vehicle: saline
[16] = dose: 100.0 mg/kg/injection, schedule: Q04DX003 (ip), vehicle: saline
[17] = dose: 200.0 mg/kg/injection, schedule: Q04DX003 (ip), vehicle: saline

Measured: T/C

CS(=O)(=O)c1cc(N2CC2)ncn1
inactive: dose: 4.0 mg/kg/injection, schedule: Q01DX015 (ip), vehicle: carboxymethylcellulose (CMC) 96 % of control | dose: 8.0 mg/kg/injection, schedule: Q01DX015 (ip), vehicle: carboxymethylcellulose (CMC) 102 % of control | dose: 16.0 mg/kg/injection, schedule: Q01DX015 (ip), vehicle: carboxymethylcellulose (CMC) 108 % of control | dose: 32.0 mg/kg/injection, schedule: Q01DX015 (ip), vehicle: carboxymethylcellulose (CMC) 113 % of control and 120 % of control | dose: 64.0 mg/kg/injection, schedule: Q01DX015 (ip), vehicle: carboxymethylcellulose (CMC) 110 % of control

NC(CSC(c1ccccc1)(c1ccccc1)c1ccccc1)C(=O)OC(c1ccccc1)c1ccccc1 (stereo not given)
inactive: dose: 264.0 mg/kg/injection, schedule: Q01DX001 (ip), vehicle: carboxymethylcellulose (CMC) 113 % of control

O=C(O)C/C=C/C(=O)NCc1cccnc1
inactive: [1] 97 % of control | [2] 97 % of control | [3] 88 % of control

CC1CNC(=S)N1 (stereo not given)
inactive: [4] 106 % of control | dose: 200.0 mg/kg/injection, schedule: Q04DX002 (ip), vehicle: Klucel (hydroxypropylcellulose) (HPC) 103 % of control | dose: 400.0 mg/kg/injection, schedule: Q04DX002 (ip), vehicle: Klucel (hydroxypropylcellulose) (HPC) 106 % of control

CN(C)Cc1ccc(C(C)(C)C)cc1
inactive: dose: 25.0 mg/kg/injection, schedule: Q01DX009 (ip), vehicle: water 97 % of control | dose: 50.0 mg/kg/injection, schedule: Q01DX009 (ip), vehicle: water 105 % of control | dose: 100.0 mg/kg/injection, schedule: Q01DX009 (ip), vehicle: water 95 % of control

COc1ccc2c(c1)C1(C)CCN(CCc3ccccc3)C(C2)C1C (stereo not given)
inactive: dose: 75.0 mg/kg/injection, schedule: Q01DX001 (ip), vehicle: carboxymethylcellulose (CMC) 93 % of control | dose: 150.0 mg/kg/injection, schedule: Q01DX001 (ip), vehicle: carboxymethylcellulose (CMC) 94 % of control

CCOC(=O)Nc1cc(NCC(O)CN(C)c2ccc(OC)cc2)c([N+](=O)[O-])c(N)n1 (stereo not given)
inactive: dose: 100.0 mg/kg/injection, schedule: Q01DX001 (ip), vehicle: saline with Tween-80 95 % of control | dose: 200.0 mg/kg/injection, schedule: Q01DX001 (ip), vehicle: saline with Tween-80 93 % of control | dose: 400.0 mg/kg/injection, schedule: Q01DX001 (ip), vehicle: saline with Tween-80 88 % of control

CCCNC(=O)Nc1ccc(Nc2ccccc2)cc1
inactive: [5] 105 % of control | [6] 103 % of control | [7] 94 % of control

O=C1OC(c2cccc(Cl)c2)=N/C1=C\c1ccc(O)cc1
inactive: [8] 118 % of control | [9] 100 % of control | [10] 104 % of control

Cc1cc(=O)c2c(C)ccc(C)c2[nH]1
inactive: dose: 100.0 mg/kg/injection, schedule: Q01DX001 (ip), vehicle: other 95 % of control | dose: 200.0 mg/kg/injection, schedule: Q01DX001 (ip), vehicle: other 91 % of control | dose: 400.0 mg/kg/injection, schedule: Q01DX001 (ip), vehicle: other 98 % of control

Cc1ccc(/C=N\NC(=O)C(O)C(O)C(O)C(O)CO)cc1 (stereo not given)
inactive: [8] 91 % of control | [9] 91 % of control | [10] 109 % of control

CC(=O)Nc1ccc(S(=O)(=O)F)cc1C
inactive: [5] 98 % of control | [6] 95 % of control

O=C([O][Bi]([c]1ccccc1)[c]1ccccc1)C(F)(F)F
inactive: [8] 95 % of control | [9] 95 % of control | [10] 92 % of control

O=[N+]([O-])c1cccc(S(=O)(=O)NNc2cccc(Cl)c2)c1
inactive: [11] 94 % of control | [12] 94 % of control | [13] 98 % of control

COC(=O)C[CH2][Sn]([Br])([Br])[c]1ccccc1
inactive: [8] 95 % of control

CC(=O)c1ccc2c(c1)CCN2
inactive: [5] 91 % of control | [6] 91 % of control

Clc1ccc2c(c1)Sc1ccc(Cl)cc1S2
inactive: [8] 101 % of control | [9] 101 % of control | [10] 97 % of control

Cc1cccc(C)c1NC(=O)Oc1ccc(C2CCCCC2)cc1
inactive: [5] 101 % of control | [11] 91 % of control | [6] 97 % of control | [12] 93 % of control | [7] 94 % of control | [13] 88 % of control

O=C1C(Br)=C(Br)C(=O)c2ccccc21
inactive: dose: 50.0 mg/kg/injection, schedule: Q01DX001 (ip), vehicle: saline 106 % of control | [1] 110 % of control

OCC(O)CCBr (stereo not given)
inactive: [1] 100 % of control | [14] 107 % of control | [2] 105 % of control | [15] 115 % of control | [3] 108 % of control

C[N+]1(CCC[N+]2(C)CC3CCCCC3C2)CCOCC1 (stereo not given)
inactive: [16] 99 % of control | [17] 96 % of control | dose: 400.0 mg/kg/injection, schedule: Q04DX003 (ip), vehicle: saline 105 % of control

C=CC(C)(O)CCC1C(=C)CCC2C(C)(C)CCCC12C (stereo not given)
inactive: [5] 100 % of control | [6] 100 % of control | [7] 95 % of control

O=C(COc1ccc(Cl)cc1)NCCc1ccccc1
inactive: [5] 97 % of control | [6] 92 % of control | [7] 98 % of control

CC1CCCN(C(=S)[S-])C1.CC1CCCN(C(=S)[S-])C1.[Zn] (stereo not given)
inactive: dose: 1.25 mg/kg/injection, schedule: Q01DX009 (ip), vehicle: saline 88 % of control | dose: 2.5 mg/kg/injection, schedule: Q01DX009 (ip), vehicle: saline 86 % of control | dose: 2.5 mg/kg/injection, schedule: Q04DX003 (ip), vehicle: acetone 91 % of control | dose: 5.0 mg/kg/injection, schedule: Q04DX003 (ip), vehicle: acetone 88 % of control | dose: 10.0 mg/kg/injection, schedule: Q01DX001 (ip), vehicle: saline 96 % of control | dose: 10.0 mg/kg/injection, schedule: Q04DX003 (ip), vehicle: acetone 88 % of control | dose: 10.0 mg/kg/injection, schedule: Q04DX003 (ip), vehicle: saline 86 % of control

Cc1ccc[n+]([O-])c1Cl
inactive: [16] 100 % of control | [17] 87 % of control

Nc1cc(Cl)c(O)c(Cl)c1
inactive: dose: 12.5 mg/kg/injection, schedule: Q01DX015 (ip), vehicle: saline 97 % of control | dose: 25.0 mg/kg/injection, schedule: Q01DX001 (ip), vehicle: saline with Tween-80 93 % of control | dose: 25.0 mg/kg/injection, schedule: Q01DX015 (ip), vehicle: saline 100 % of control | dose: 50.0 mg/kg/injection, schedule: Q01DX001 (ip), vehicle: saline with Tween-80 92 % of control | dose: 50.0 mg/kg/injection, schedule: Q01DX015 (ip), vehicle: saline 97 % of control | dose: 100.0 mg/kg/injection, schedule: Q01DX001 (ip), vehicle: carboxymethylcellulose (CMC) 93 % of control | [1] 93 % of control | dose: 100.0 mg/kg/injection, schedule: Q01DX015 (ip), vehicle: saline 91 % of control

OC12c3ccccc3C(O)(c3ccccc31)C1c3ccccc3C2c2ccccc21
inactive: dose: 50.0 mg/kg/injection, schedule: Q04DX002 (ip), vehicle: Klucel (hydroxypropylcellulose) (HPC) 101 % of control | [4] 93 % of control

CS(=O)(=O)Nc1nc2ccccc2[nH]1
inactive: dose: 50.0 mg/kg/injection, schedule: Q01DX009 (ip), vehicle: saline 96 % of control | [14] 93 % of control | [15] 86 % of control
